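Compound exposure: 48 hours, 5 concentrations, 96-well plates. The concentration for 50% growth inhibition is given as GI50.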 The source made the active and inactive calls. No stated cut-off is given here; in the data, active = GI50 up to about 1.1 µM and inactive = higher.

The results in this text go back to ChEMBL document CHEMBL1201862, “PubChem BioAssay data set” (2004).

Among the test systems are HT-29; OVCAR-8; U-251; MDA-N; MDA-MB-435; SW-620; SK-MEL-2; UO-31; SR; LOX IMVI; SK-MEL-5; SF-268; 786-0; MDA-MB-231; UACC-62; SF-539; SNB-75; NCI/ADR-RES; CAKI-1; CCRF-CEM.
Holding throughout (test): inhibition of tumour cell growth, NCI panel, 48 h

Turning to `O=S(=O)(Cc1cnc(O)nc1O)Cc1cnc(O)nc1O`, the GI50 in the test with HT-29, in the test with OVCAR-8, in the test with U-251, in the test with MDA-N, with MDA-MB-435 and in the test with SW-620 was > 100 µM (inactive) in each case. The GI50 is > 100 µM (inactive) with SK-MEL-2; > 100 µM (inactive) with UO-31; 37.8 µM (inactive) in the test with SR; > 100 µM (inactive) in the test with LOX IMVI; > 100 µM (inactive) with SK-MEL-5; > 100 µM (inactive) with SF-268. Moreover, the GI50 with 786-0, with MDA-MB-231, in the test with UACC-62, in the test on SF-539, in the test with SNB-75 and in the test on NCI/ADR-RES was > 100 µM (inactive) throughout. For the same compound, the GI50 in the test on CAKI-1 was > 100 µM (inactive).
Consider `CC1(CCOCc2ccccc2)NC(=O)NC1=O` (centres undefined), for which the GI50 in the test on HT-29, in the test with OVCAR-8, with U-251, in the test on MDA-N, in the test with MDA-MB-435 and with SW-620 was > 100 µM (inactive) each time. Further, the GI50 in the test on SK-MEL-2, in the test with UO-31, in the test with SR, in the test with LOX IMVI, in the test on SK-MEL-5 and with SF-268 was > 100 µM (inactive) in each case. Moreover, the GI50 with 786-0, in the test on MDA-MB-231, with UACC-62, with NCI/ADR-RES and in the test on CAKI-1 was > 100 µM (inactive) each time.
As for `COc1cc(/C=N/N=C2NCCCN2)ccc1O`, the GI50 in the test with HT-29, in the test with CCRF-CEM, in the test with OVCAR-8, in the test on U-251, in the test with MDA-N and in the test with MDA-MB-435 was > 100 µM (inactive) throughout. Also, the GI50 with SW-620, with SK-MEL-2, in the test on UO-31, in the test with SR, in the test on LOX IMVI and in the test with SK-MEL-5 was > 100 µM (inactive) throughout. Also, the GI50 was > 100 µM (inactive) in the test with SF-268; > 100 µM (inactive) in the test with 786-0; > 100 µM (inactive) in the test on MDA-MB-231; > 100 µM (inactive) in the test with UACC-62; > 100 µM (inactive) with SF-539; 30.3 µM (inactive) with SNB-75. Further, in the test on NCI/ADR-RES, the GI50 is > 100 µM (inactive).
In the case of `COC(=O)[C@@H]1CCCN1CCN1CCC[C@H]1C(=O)OC`, the GI50 in the test on HT-29, with OVCAR-8, with U-251, in the test on MDA-N, in the test with MDA-MB-435 and with SW-620 was > 100 µM (inactive) throughout. For the same compound, the GI50 was > 100 µM (inactive) in the test with SK-MEL-2; > 100 µM (inactive) in the test on UO-31; 31.8 µM (inactive) with SR; > 100 µM (inactive) in the test on SK-MEL-5; > 100 µM (inactive) in the test with SF-268; > 100 µM (inactive) in the test on 786-0. Besides, the GI50 in the test on MDA-MB-231, in the test on UACC-62, in the test with SF-539, with NCI/ADR-RES and in the test on CAKI-1 was > 100 µM (inactive) throughout.
On to `C[C@@]12c3c4ccc(C=O)c3Oc3ccc(C=O)c(c31)Oc1c(C=O)ccc(c12)O4`, for which the GI50 with HT-29, with OVCAR-8, in the test with U-251, in the test on MDA-N, in the test with MDA-MB-435 and with SW-620 was > 100 µM (inactive) in each case. In addition, the GI50 in the test with SK-MEL-2 was > 100 µM (inactive); in the test with UO-31 it was > 100 µM (inactive); in the test with SR, 2.96 µM (inactive); in the test with LOX IMVI, > 100 µM (inactive); in the test on SK-MEL-5, > 100 µM (inactive); in the test on SF-268, > 100 µM (inactive). Moreover, the GI50 in the test with 786-0, with MDA-MB-231, in the test with UACC-62, in the test with SF-539, in the test with SNB-75 and in the test on NCI/ADR-RES was > 100 µM (inactive) each time.
`C=C1CN(C(=O)c2cc3cc(OC)c(OC)c(OC)c3[nH]2)c2cc([N+](=O)[O-])ccc21`: the GI50 in the test with HT-29 is > 100 µM (inactive); in the test on OVCAR-8 it was > 100 µM (inactive); in the test with U-251, 19.1 µM (inactive); in the test on MDA-N, > 100 µM (inactive); with MDA-MB-435 it was > 100 µM (inactive); in the test on SW-620 it was > 100 µM (inactive). For the same compound, the GI50 with SK-MEL-2 is 34.8 µM (inactive); with UO-31 it was > 100 µM (inactive); in the test on SR, > 100 µM (inactive); in the test with LOX IMVI, > 100 µM (inactive); in the test with SK-MEL-5 it was > 100 µM (inactive); with SF-268, 15.5 µM (inactive). In addition, the GI50 in the test with 786-0 is 30.5 µM (inactive); with MDA-MB-231, 17.5 µM (inactive); in the test on UACC-62, > 100 µM (inactive); in the test on SF-539 it was > 100 µM (inactive); in the test on SNB-75, 51.1 µM (inactive); in the test with NCI/ADR-RES, > 100 µM (inactive). Moreover, in the test on CAKI-1, the GI50 was > 100 µM (inactive).
Consider `COc1ccc(C(OCC2OC(n3ccc(NC(=O)c4ccccc4)nc3=O)CC2OP2(=S)SCCS2)(c2ccccc2)c2ccc(OC)cc2)cc1` (centres undefined), for which the GI50 is 24.7 µM (inactive) in the test with HT-29; 27.2 µM (inactive) in the test on OVCAR-8; 28 µM (inactive) in the test on U-251; > 10 µM (inactive) in the test with MDA-N; 30.1 µM (inactive) in the test with MDA-MB-435; 18.4 µM (inactive) in the test with SW-620. Besides, the GI50 is 43.6 µM (inactive) with SK-MEL-2; > 100 µM (inactive) in the test with UO-31; 48.1 µM (inactive) in the test with SR; 14.9 µM (inactive) with LOX IMVI; 22.4 µM (inactive) in the test with SK-MEL-5; 21.2 µM (inactive) in the test with SF-268. For the same compound, the GI50 in the test on 786-0 is 24.4 µM (inactive); with MDA-MB-231 it was 31.1 µM (inactive); in the test with UACC-62, 16.7 µM (inactive); in the test with SNB-75, 24.5 µM (inactive); in the test with NCI/ADR-RES, > 10 µM (inactive).
On to `S=C1CC(c2ccccc2)Sc2cc(Cl)ccc2N1` (centres undefined), for which the GI50 in the test with HT-29 is 4.4 µM (inactive); with CCRF-CEM it was 1.36 µM (inactive); with OVCAR-8 it was 13.2 µM (inactive); in the test with U-251, 4.26 µM (inactive); in the test on MDA-N, 0.661 µM (active); in the test on MDA-MB-435, 0.723 µM (active). Further, the GI50 with UO-31 is 44.5 µM (inactive); with SR, 3.44 µM (inactive); with LOX IMVI it was 4.09 µM (inactive); in the test with SK-MEL-5 it was 5.64 µM (inactive); with SF-268, 6.84 µM (inactive); in the test on 786-0 it was 5.42 µM (inactive). Also, the GI50 in the test on MDA-MB-231 is 7.57 µM (inactive); in the test with UACC-62, 5.56 µM (inactive); with SNB-75, 5.24 µM (inactive); in the test with NCI/ADR-RES, 3.52 µM (inactive); with CAKI-1, 7.71 µM (inactive).
Turning to `COc1ccc(/C(=N/OCCCC(=O)O)c2cccs2)cc1`, the GI50 with HT-29, in the test with CCRF-CEM, in the test on OVCAR-8, in the test on U-251, in the test on MDA-N and in the test on MDA-MB-435 was > 100 µM (inactive) each time. Further, the GI50 in the test with SW-620, in the test on SK-MEL-2, with UO-31, with LOX IMVI, in the test with SK-MEL-5 and in the test on SF-268 was > 100 µM (inactive) throughout. Further, the GI50 in the test with 786-0, in the test with MDA-MB-231, in the test with UACC-62, in the test with SF-539, with SNB-75 and in the test with NCI/ADR-RES was > 100 µM (inactive) throughout. The GI50 with CAKI-1 is > 100 µM (inactive).
For the compound `C[C@@]12C[C@@H](c3ccccc3O1)N1Cc3ccccc3CSC1=N2`, the GI50 is 38.3 µM (inactive) in the test on HT-29; > 100 µM (inactive) with OVCAR-8; 52.8 µM (inactive) with U-251; 93.5 µM (inactive) in the test on MDA-N; > 100 µM (inactive) in the test with MDA-MB-435; > 100 µM (inactive) with SW-620. Also, the GI50 was > 100 µM (inactive) in the test on SK-MEL-2; > 100 µM (inactive) in the test with UO-31; > 100 µM (inactive) in the test with SR; 35.5 µM (inactive) in the test with LOX IMVI; 44.4 µM (inactive) in the test with SK-MEL-5; > 100 µM (inactive) in the test on SF-268. Further, the GI50 in the test with 786-0 was 38.8 µM (inactive); in the test on MDA-MB-231 it was > 100 µM (inactive); in the test on UACC-62, 81.5 µM (inactive); with SF-539 it was 51.5 µM (inactive); in the test with SNB-75, > 100 µM (inactive); with NCI/ADR-RES, > 100 µM (inactive). The GI50 in the test on CAKI-1 was > 100 µM (inactive).
As to `COC(=O)C(C)(Cc1ccc2c(c1)nnn2C(C)=O)NC(C)=O` (centres undefined), the GI50 with HT-29, in the test on CCRF-CEM, in the test on OVCAR-8, with MDA-N, in the test with MDA-MB-435 and in the test with SW-620 was > 100 µM (inactive) each time. Besides, the GI50 in the test with SK-MEL-2, in the test with UO-31, in the test on SR, with LOX IMVI, with SK-MEL-5 and with SF-268 was > 100 µM (inactive) in each case. Also, the GI50 in the test on 786-0, in the test on MDA-MB-231, in the test on UACC-62, in the test on SNB-75, with NCI/ADR-RES and in the test with CAKI-1 was > 100 µM (inactive) in each case.
